For one data set, the system named is human PMNLs. As to the kind of experiment: Lactate dehydrogenase release (LDH assay) in PMNL. Format: cell-based. As for the experimental part: After treatment of PMNL, supernatants were centrifuged (600g × 5 min, 4 °C), and 100 μL of supernatant were mixed with 200 μL LDH reaction buffer (75 mM Tris/HCl, pH 7.4, 0.3 mM NADH, 1.5 mM Na-pyruvate) in a 96-well plate. The decrease of NADH was measured immediately by absorbance at 340 nm in a kinetic mode (every 7 s for 20 min; Multiskan Spectrum). As a positive control for maximal LDH release, cells treated with 1 % Triton X-100 were included in each experiment, while untreated cells and vehicle (DMSO) served as negative controls.

A further data set relates to ROS formation in PMNL. As to the kind of experiment: ROS formation in neutrophils (DCF-DA). Format: cell-based, human. The note with it: 1 and 10 μM, 0.1 μM PMA. How it is done:
Neutrophils (10^7 cells/mL in PG buffer) were pre-incubated for 15 min at 37 °C with litreol compounds, diphenyleneiodonium chloride (DPI, used as a positive control for ROS inhibition), or 0.1 % DMSO as vehicle control. Then, 2′,7′-dichlorofluorescence-diacetate (DCF-DA; 1 μg/mL) and CaCl2 (1 mM) were added 2 min prior to addition of 0.1 μM phorbol myristate acetate (PMA, AppliChem, Darmstadt, Germany). The fluorescence emission at 530 nm was measured after excitation at 485 nm in a thermally controlled (37 °C) NOVOstar microplate reader (BMG Labtechnologies GmbH, Offenburg, Germany).

The subject of data set [1] is 5-LO. More on the design: method as in PMID 32220788. The following applies: read-out: IC50 against 5-LO; cited from earlier work.
Data set [2] deals with T1, 5-LO (Homo sapiens, UniProt P09917).
T1 sequence (P09917 1-674): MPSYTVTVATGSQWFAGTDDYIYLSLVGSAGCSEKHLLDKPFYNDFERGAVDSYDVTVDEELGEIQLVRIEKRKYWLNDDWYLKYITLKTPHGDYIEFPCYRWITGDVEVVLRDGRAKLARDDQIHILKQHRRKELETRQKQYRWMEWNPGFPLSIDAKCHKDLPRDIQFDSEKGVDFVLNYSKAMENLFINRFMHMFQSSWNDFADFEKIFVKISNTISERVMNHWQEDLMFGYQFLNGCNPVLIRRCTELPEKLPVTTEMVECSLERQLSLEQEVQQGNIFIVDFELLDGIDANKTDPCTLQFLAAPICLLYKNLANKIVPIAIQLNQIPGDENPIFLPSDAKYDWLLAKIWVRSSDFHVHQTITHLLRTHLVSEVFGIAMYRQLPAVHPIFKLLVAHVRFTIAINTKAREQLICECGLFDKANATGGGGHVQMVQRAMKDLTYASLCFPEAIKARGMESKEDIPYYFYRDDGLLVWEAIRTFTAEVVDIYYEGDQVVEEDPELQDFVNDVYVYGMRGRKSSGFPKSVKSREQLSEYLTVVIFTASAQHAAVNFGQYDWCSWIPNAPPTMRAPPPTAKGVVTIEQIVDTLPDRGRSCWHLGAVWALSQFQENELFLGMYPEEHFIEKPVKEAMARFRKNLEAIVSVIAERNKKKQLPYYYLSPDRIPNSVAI
The data set can be described thus: 5-LO product formation in intact human PMNL (neutrophils). Format: cell-based. Further details: endogenous in cells; host or cells: human PMNL from peripheral blood of healthy volunteers. The note with it: for IC50: intact human PMNL. How it is done: PMNL and monocytes were isolated from human peripheral blood of adult healthy volunteers, with consent, obtained from the Institute of Transfusion Medi-cine, University Hospital Jena (Germany). PMNL were immediately isolated by dextran sedi-mentation, centrifugation on Nycoprep cushions, and hypotonic lysis of erythrocytes, as described. PMNL viability was analyzed by trypan blue exclusion with a Vi-cell counter (Beckmann Coulter GmbH, Krefeld). HEK-293 cells were grown in DMEM/High Glucose (4.5 g/L) medium supplemented with heat-inactivated fetal calf serum (FCS, 10 %, vv_1), 100 U/mLpenicillin, and 100 µg/mL streptomycin at 37 °C in a 5 % CO2 incubator. HEK-293 cells were stably transfected with 5-LO and FLAP as validated experimental cell-based model for studying the regulation of 5-LO [28]. None of the cell lines used in this study were authenticated.
Freshly isolated human PMNL (5 × 10^6) were resuspended in 1 mL PBS buffer containing 1 mg/mL glucose (PG buffer). […] After 10 min at 37 °C, the reaction was stopped with 1 mL of methanol for 10 min on ice and LO products formed and released in the supernatants were extracted and analyzed by HPLC. In detail, after centrifugation (800g, 10 min, room temperature) the samples were applied to C-18 solid-phase extraction columns (100 mg; IST, Mid Glamorgan, United Kingdom), preconditioned with 1 mL methanol and 1 mL water. The columns were washed with 1 mL water and 1 mL water/methanol (75/25, vol/vol) and 5-LO metabolites were eluted with 300 μL methanol. The extract was then diluted with 120 μL water, and 100 μL diluted extract were analyzed by HPLC using a C-18 Radial-Pak column (Waters) eluted with methanol/water/acetic acid 75/25/0.1 (vol/vol/vol) at a flow rate of 1.2 mL/min. Amounts of different metabolites were determined by peak area integration. 5-LO products analyzed include LTB4 and its two all-trans isomers, 5(S)-hydroxy-6-trans-8,11,14-cis-eicosatetraenoic acid (5-HETE), and 5(S)-hydroper-oxy-6-trans-8,11,14-cis-eicosatetraenoic acid (5-HpETE). 5-HETE and 5-HpETE coelute as one major peak, and the integration of this peak represented both eicosanoids.

The mark [3] stands for this setting: Cell-based A23187 (IC50 of 5-LO product formation), […] A23187, 10 min.
Where [4] appears, read: Cell-based A23187 + AA (IC50 of 5-LO product formation), […] A23187 plus 20 μM AA, 10 min.

Turning to `CCCC/C=C\CCCCCCCCCc1cccc(O)c1O` [CI, (Z)-3-(pentadec-10′-enyl)-catechol], the “cytotoxicity on PMNL (LDH levels in the supernatants)” value in the data set with human PMNLs is recorded as “comparable to those of untreated controls”. Also, the “ROS formation in PMA-stimulated PMNL” value with ROS formation in PMNL was “not affected”. Moreover, the IC50 with 5-LO [1] was 2.09 µM; on 5-LO [2] (setting [3]) it was 0.26 µM; on 5-LO [2] (setting [4]), 0.09 µM. Also, the “fold greater potency compared to hydrogenated analogue CS” value on 5-LO [2] (comparison of IC50 values (neutrophils and cell-free)) is reported as 2.5- to 3 fold.

Turning to `CCCCCCCCCCCCCCCc1cccc(O)c1O` [CS, 3-n-pentadecylcatechol], the “cytotoxicity on PMNL (LDH levels in the supernatants)” value with human PMNLs is recorded as “comparable to those of untreated controls”. For the same molecule, the “ROS formation in PMA-stimulated PMNL” value in the data set with ROS formation in PMNL is listed as “not affected”. Moreover, the concentration for half-maximal inhibition (IC50) is 2.74 µM with 5-LO [1], 0.8 ± 0.5 µM against 5-LO [2] (setting [3]) and 0.07 µM on 5-LO [2] (setting [4]).

What is called IC50 is the midpoint of a concentration-inhibition curve.

The values above are taken from PMC12523804, “Evaluation of molecular mechanisms of (Z)-3-(pentadec-10′-enyl)-catechol (litreol) and synthetic derivatives as inhibitors of human leukotriene biosynthesis” (Redox Biology, 2025).
